Patent US10508090B2, “Sulfonamides as GPR40- and GPR120-agonists” (DOMPÉ FARMACEUTICI S.P.A., priority 2016, dated 2019)

Legend:
STC-1 cells = assay: In vitro GLP-1 secretion in STC-1 cells (ELISA); format: cell-based, murine; details: for fold induction at 30 µM: Mus musculus, STC-1, 0.5 h, read-out: GLP-1 RELEASE STC-1, fold of increase over DMSO
Description: (§1) GPR120/40 Activation: In Vitro GLP-1 Secretion
(§2) 2×10^5 STC-1 cells were seeded in a 12-plate and 24 hours later were treated with selected compounds. 1×10^6 NCI-H716 cells were differentiated in matrigel-coated 12-plate and treated 48 h hours later.
(§3) The day of the experiment, wells were washed once with 1 ml of PBS and then cells were stimulated with 0.5 ml of DMEM (w/o serum, w/o phenol-red) containing 30 μM of selected compounds in STC1 and 100 μM in differentiated NCIH716 for 30 minutes. DMSO has been used as negative control, α-linolenic acid (ALA) (endogenous agonist) as positive control. After stimulations, supernatants were collected, centrifuged at 4000 rpm for 4′ at 4° C., and used for the GLP1 detection by ELISA.

NCI-H716 cells = assay: In vitro GLP-1 secretion in differentiated NCI-H716 cells (ELISA); format: cell-based, human; details: for fold induction at 100 µM: Homo sapiens, NCI-H716, 0.5 h, compound at 100 μM for 30 minutes, differentiated NCI-H716 cells, read-out: GLP-1 RELEASE NCI, fold of increase over DMSO
Description: as §1, §2, §3

human GPR120 = target: T1, human GPR120 (Homo sapiens, UniProt Q5NUL3); assay: In vitro Ca2+ mobilization, CHO-k1 cells stably expressing human GPR120; format: cell-based; details: for AC50: intracellular calcium, CHO-k1 cells expressing human GPR120, read-out: Ca2+ hGPR120 AC50
T1 construct: expressed in transfected cells; host or cells: CHO-k1
T1 sequence (Q5NUL3 1-361): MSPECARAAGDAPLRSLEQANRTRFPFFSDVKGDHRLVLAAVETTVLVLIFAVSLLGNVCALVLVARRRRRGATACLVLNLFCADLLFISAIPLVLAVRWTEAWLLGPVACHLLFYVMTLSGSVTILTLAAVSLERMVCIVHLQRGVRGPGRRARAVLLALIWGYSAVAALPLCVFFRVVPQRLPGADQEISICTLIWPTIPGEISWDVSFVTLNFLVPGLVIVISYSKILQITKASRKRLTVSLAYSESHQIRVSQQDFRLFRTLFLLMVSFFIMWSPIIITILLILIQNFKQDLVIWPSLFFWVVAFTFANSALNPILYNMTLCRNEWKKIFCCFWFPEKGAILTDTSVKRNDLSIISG
Description: (§4) GPR120/40 Activation: In Vitro Ca^2+ Mobilization
(§5) The activation of GPR120/40 by all compounds was determined by measuring changes in intracellular calcium levels using a Ca^2+ sensitive fluorescent dye.
(§6) The experiments were performed using CHO-k1 cells stably expressing the human GPR120 or GPR40. Cells were seeded 10000 cells/well in 384-plates in complete medium and grown overnight at 37° C., 5% CO2. 24 h after seeding, cell culture media was removed and cells were loaded with the fluorescent Ca^2+ indicator (Fluo-8 NW dye in Tyrode's buffer). Dye-loaded cell plates were incubated for 1 h at room temperature under a yellow light sodium lamp.
(§7) Cell were treated with test compounds and controls at 10, 30 and 60 μM. The kinetic response was monitored over a period of 7 minutes (using FLIPRTETRA system). A second injection of 3× concentrated reference agonist at ˜EC50 were then administered to cells and the signal of the emitted fluorescence was measured over a period of additional 3 minutes. The agonist effect is expressed as a percentage of activation, with 100% activation being a result in which the Response Values of the test wells reach a level identical to the one of the Stimulator Controls (alpha linolenic acid reference agonist EC100). 0% activation is a result in which the Response Values of the test wells reach a level identical to the one of the Neutral Controls (assay buffer) in the AGO_KRV (Agonist Kinetic Response Value) response value.

human GPR40 = target: T2, human GPR40 (Homo sapiens, UniProt O14842); assay: In vitro Ca2+ mobilization, CHO-k1 cells stably expressing human GPR40; format: cell-based; details: for AC50: read-out: Ca2+ hGPR40 AC50
T2 construct: expressed in transfected cells; host or cells: CHO-k1
T2 sequence (O14842 whole entry): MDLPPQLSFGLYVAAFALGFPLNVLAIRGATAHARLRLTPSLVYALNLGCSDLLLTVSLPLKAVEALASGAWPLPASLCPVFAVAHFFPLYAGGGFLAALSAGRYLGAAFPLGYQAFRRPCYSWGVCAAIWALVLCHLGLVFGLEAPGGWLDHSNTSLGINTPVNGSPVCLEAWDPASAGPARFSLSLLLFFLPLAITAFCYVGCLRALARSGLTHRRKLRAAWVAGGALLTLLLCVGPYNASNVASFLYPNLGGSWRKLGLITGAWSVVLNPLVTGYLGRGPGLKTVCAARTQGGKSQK
Description: as §4, §5, §6, §7

[1] = compound at 30 μM for 30 minutes, STC-1 cells
[2] = intracellular calcium, CHO-k1 cells expressing human GPR40

Structure (SMILES) | agonistic activity on GPR120 (AC50 in the calcium mobilization assay), in words (human GPR120) | AC50 (human GPR120) [µM] | agonistic activity on GPR40 (AC50 in the calcium mobilization assay), in words (human GPR40) | AC50 (human GPR40; [2]) [µM] | Ca2+ hGPR40 AC50 (human GPR40; [2]) | GLP-1 secretion in STC1 (murine) cells, in words (STC-1 cells) | fold induction at 30 µM (STC-1 cells; [1]) | GLP-1 secretion in NCI-H716 (human) cells, in words (NCI-H716 cells) | fold induction at 100 µM (NCI-H716 cells) | GLP-1 RELEASE STC-1, fold of increase over DMSO (STC-1 cells; [1]) [fold]
Cc1cc(OCCCS(C)(=O)=O)cc(C)c1NS(=O)(=O)c1cccc(CCCCCCC(=O)O)c1 [Example 35, 7-(3-(N-(2,6-dimethyl-4-(3(methylsulfonyl)propoxy)phenyl)sulfamoyl)phenyl)heptanoic acid] |  | 6.1 |  | 2.3 |  |  | 4.3 ± 0.61 |  | 4.2 ± 0.25 | 
Cc1nc(NS(=O)(=O)c2cccc(CCCCCCC(=O)O)c2)oc1C [Example 15, 7-(3-(N-(4,5-dimethyloxazol-2-yl)sulfamoyl)phenyl)heptanoic acid] |  | 24.1 |  | 27.5 |  |  | 1.19 ± 0.89 |  | 1.8 ± 0.91 | 
Cc1nnc(NS(=O)(=O)c2cccc(CCCCCCC(=O)O)c2)s1 [Example 18, 7-(3-(N-(5-methyl-1,3,4-thiadiazol-2-yl)sulfamoyl)phenyl)heptanoic acid] |  | 27.8 |  | 22.4 |  |  | 1.98 ± 0.37 |  | 1.25 ± 0.8 | 
Cc1nnc(C)n1NS(=O)(=O)c1cccc(CCCCCCC(=O)O)c1 [Example 21, 7-(3-(N-(3,5-dimethyl-4H-1,2,4-triazol-4-yl)sulfamoyl)phenyl)heptanoic acid] |  | 17 |  | 7.9 |  |  | 2.23 ± 0.98 |  | 2.57 ± 0.91 | 
Cc1nc(NS(=O)(=O)c2cccc(CCCCCCC(=O)O)c2)sc1C [Example 14, 7-(3-(N-(4,5-dimethylthiazol-2-yl)sulfamoyl)phenyl)heptanoic acid] |  | 17.4 |  | 20.8 |  |  | 1.37 ± 0.11 |  | 1.81 ± 0.67 | 
Cc1n[nH]c(C)c1NS(=O)(=O)c1cccc(CCCCCCC(=O)O)c1 [Example 12, 7-(3-(N-(3,5-dimethyl-1H-pyrazol-4-yl)sulfamoyl)phenyl)heptanoic acid] |  | 13.1 |  | 10.7 |  |  | 1.04 ± 0.32 |  | 1.41 ± 0.36 | 
Cc1nc(C)c(NS(=O)(=O)c2cccc(CCCCCCC(=O)O)c2)s1 [Example 13, 7-(3-(N-(2,4-dimethylthiazol-5-yl)sulfamoyl)phenyl)heptanoic acid] |  | 15.2 |  | 23.9 |  |  | 1.13 ± 0.15 |  | 1.03 ± 0.17 | 
Cc1nnc(NS(=O)(=O)c2cccc(CCCCCCC(=O)O)c2)[nH]1 [Example 20, 7-(3-(N-(5-methyl-4H-1,2,4-triazol-3-yl)sulfamoyl)phenyl)heptanoic acid] |  | 6.5 |  | 8.2 |  |  | 3.36 ± 0.37 |  | 3.31 ± 0.28 | 

Now from value to compound, other results behind:

agonistic activity on GPR120 (AC50 in the calcium mobilization assay), in words (human GPR120) | AC50 (human GPR120) [µM] | agonistic activity on GPR40 (AC50 in the calcium mobilization assay), in words (human GPR40) | AC50 (human GPR40; [2]) [µM] | Ca2+ hGPR40 AC50 (human GPR40; [2]) | Structure (SMILES) | GLP-1 secretion in STC1 (murine) cells, in words (STC-1 cells) | fold induction at 30 µM (STC-1 cells; [1]) | GLP-1 secretion in NCI-H716 (human) cells, in words (NCI-H716 cells) | fold induction at 100 µM (NCI-H716 cells) | GLP-1 RELEASE STC-1, fold of increase over DMSO (STC-1 cells; [1]) [fold]
low microMolar range | 1.98 | low microMolar range | 12.9 |  | Cc1cc(C(C)C)cc(C)c1NS(=O)(=O)c1cccc(CCCCCCC(=O)O)c1 [Example 3, 7-(3-(N-(4-isopropyl-2,6-dimethylphenyl)sulfamoyl)phenyl)heptanoic acid] | efficacious | 2.7 ± 0.31 | efficacious | 2.5 ± 0.11 | 
 | 25.9 |  | 17.2 |  | O=C(O)CCCCCCc1cccc(S(=O)(=O)Nc2nsc(-c3ccccc3)n2)c1 [Example 16, 7-(3-(N-(5-phenyl-1,2,4-thiadiazol-3-yl)sulfamoyl)phenyl)heptanoic acid] |  | 1.31 ± 0.32 |  | 1.69 ± 0.14 | 
 | 10.2 |  | 11.7 |  | O=C(O)CCCCCCc1cccc(S(=O)(=O)Nc2cc(-c3ccccc3)ns2)c1 [Example 22, 7-(3-(N-(3-phenylisothiazol-5-yl)sulfamoyl)phenyl)heptanoic acid] |  | 3.13 ± 1.26 |  | 3.71 ± 0.67 | 
low microMolar range | 5.72 | low microMolar range | 19.8 |  | Cc1cc(Br)cc(C)c1NS(=O)(=O)c1cccc(CCCCCCC(=O)O)c1 [Example 7, 7-(3-(N-(4-bromo-2,6-dimethylphenyl)sulfamoyl)phenyl)heptanoic acid] | efficacious | 1.8 ± 0.24 | efficacious | 1.9 ± 0.15 | 
 | 37.1 |  | 31.2 |  | O=C(O)CCCCCCc1cccc(S(=O)(=O)Nc2csnc2-c2ccccc2)c1 [Example 30, 7-(3-(N-(3-phenylisothiazol-4-yl)sulfamoyl)phenyl)heptanoic acid] |  | 2.94 ± 1.12 |  | 2.13 ± 1.83 | 
low microMolar range | 11.2 | low microMolar range | 8.9 |  | Cc1cc(F)c(-c2ccccc2)cc1NS(=O)(=O)c1cccc(CCCCCCC(=O)O)c1 [Example 9, 7-(3-(N-(6-fluoro-4-methyl-[1,1′-biphenyl]-3-yl)sulfamoyl)phenyl)heptanoic acid] | efficacious | 14.5 | efficacious | 6.2 | 14.5 ± 1.24
 | 11.1 |  | 23.7 |  | Cc1cc(-c2ccccc2)cc(C)c1NS(=O)(=O)c1cccc(CCCCCCC(=O)O)c1 [Example 32, 7-(3-(N-(3,5-dimethyl-[1,1′-biphenyl]-4-yl)sulfamoyl)phenyl)heptanoic acid] |  | 3.67 ± 0.9 |  | 4.51 ± 0.59 | 
low microMolar range | 6.2 | low microMolar range |  | Inactive | Cc1cc(C)c(NS(=O)(=O)c2cccc(CCCCCC(=O)O)c2)c(C)c1 [Example 11, 6-{3-[(2,4,6-trimethylphenyl)sulfamoyl]phenyl}hexanoic acid] | efficacious | 1.71 ± 0.21 | efficacious | 1.87 ± 0.27 | 
 | 7 |  | 12.4 |  | Cc1cc(OCc2ccccc2)cc(C)c1NS(=O)(=O)c1cccc(CCCCCCC(=O)O)c1 [Example 34, 7-(3-(N-(4-(benzyloxy)-2,6-dimethylphenyl)sulfamoyl)phenyl)heptanoic acid] |  | 5.5 ± 0.73 |  | 4.58 ± 0.26 | 
 | 11.7 |  | 4.7 |  | COc1cc(C)c(NS(=O)(=O)c2cccc(CCCCCCC(=O)O)c2)c(C)c1 [Example 8, 7-(3-(N-(4-methoxy-2,6-dimethylphenyl)sulfamoyl)phenyl)heptanoic acid] |  | 1.7 ± 0.12 |  | 2.1 ± 0.08 | 
